Laboratory results: US20130164747A1, “Predicting Treatment Response in Cancer Subjects” (University of South Florida, priority 2005, published 2013)
Where two headings read alike, the source gives them in different places.

Columns and labels:
[1] = system: H23-R1 cells; test: MTS assay, RRM1-overexpressing cell line; type: cell-based
Text: (§1) Reduced expression of RRM1 correlates with increased sensitivity to gemcitabine. Stable, genetically modified cell lines with increased and decreased RRM1 expression and corresponding controls were generated (Gautam et al., Oncogene 22:2135-42, 2003). H23, originating from a lung adenocarcinoma, was used as the parent cell line (Carney et al., Cancer Res 45:2913-23, 1985). H23siR1 was generated by stable transfection of NCI-H23 with a pSUPER-siRRM1 construct. These cells express an siRNA that targets RRM1, thereby causing decreased expression of RRM1. To generate this construct, the pSUPER-GFP/neo vector (OligoEngine, Seattle, Wash.) was digested with BglII and HindIII and the annealed oligonucleotides (5′-GATCCCCgacgctagagcggtettat[…]ataagaccgctctagcgte[…]-3′(SEQ ID NO:1) and 5′-[…]gacgctagagcggtcttatTC TCTTGAAataagaccgctctagcgtcGGG-3′ (SEQ ID NO:2)) were ligated into the vector. The 19 nucleotide RRM1 target sequences are denoted by lower-case letters. The control H23siCt cell line was generated which expressed an siRNA targeting the sequence […] (SEQ ID NO:3). This sequence has no similarity to any known gene. H23-R1 is a stable RRM1 overexpressing cell line, and H23-Ct is its corresponding control. Both were generated by transfection with full-length RRM1 cDNA cloned into the expression plasmid pCMV-Tag2 (Stratagene, La Jolla, Calif.) as previously described (Gautam et al., Oncogene 22:2135-42, 2003). The level of RRM1 expression in these cell lines was assessed by real-time quantitative RT-PCR and Western blot analysis.
(§2) A modified MTT assay (MTS assay, Promega, Madison, Wis.) was used to assess the impact of RRM1 expression on therapeutic efficacy of gemcitabine and platinum-containing agents in vitro. This MTS assay utilized 3-(4,5-dimethylthiazol-2-yl)-5-(3-carboxymethoxyphenyl)-2-(4-sulfophenyl)-2H-tetrazolium as the reagent. The assay was performed by seeding 4,000 cells/well in 96 well flat-bottom plates. H23-Ct, H23-R1, H23siR1, H23siCt cells were continuously exposed to drug for 72 or 96 hr. After 3 hr of incubation at 37° C., the absorbance was measured at 490 nm in a microplate reader (Benchmark Plus, Bio-Rad, Hercules, Calif.). All experiments were repeated three times.
(§3) The MTS assay was performed by seeding 4,000 cells/well in 96 well flat-bottom plates. H23-Ct, H23-R1, H23 siR1, H23siCt cells were continuously exposed to drug for 72 or 96 h. The assay was performed with 3-(4,5-dimethylthiazol-2-yl)-5-(3-carboxymethoxyphenyl)-2-(4-sulfophenyl)-2H-tetrazolium reagent. After 3 h of incubation at 37° C., the absorbance was measured at 490 nm. All experiments were repeated three times.

[2] = system: H23siR1 cells; test: MTS assay, cell line with siRNA-reduced RRM1 expression; type: cell-based
Text: as §1, §2, §3

[3] = system: H23-Ct cells; test: MTS assay, control cell line of H23-R1; type: cell-based
Text: as §1, §2, §3

[4] = system: H23siCt cells; test: MTS assay, siRNA control cell line; type: cell-based
Text: as §1, §2, §3

[5] = system: RRM1 expression; test: Summary of observations: response by RRM1 expression level
[6] = system: H23 (NCI-H23) cells; test: MTS assay (modified MTT), parent cell line; type: cell-based
Method: as §2, §3

[7] = system: ERCC1 expression; test: Summary of observations: response by ERCC1 expression level
[8] = system: H23siR1 cells; test: Drug-induced apoptosis, annexin V labeling by flow cytometry; type: cell-based
Method: (§4) To determine drug-induced in vitro apoptosis, 3×10^5 cells/well were seeded in six-well plates and allowed to attach overnight. Chemotherapeutic agents were added to the culture at the indicated concentrations. After 2, 4, and 6 hours of treatment annexin V labeling of the cells was performed as recommended by the manufacturer (BD Pharmingen, San Diego, Calif.). The percentage of labeled cells was determined by flow cytometry (FACScalibur, Becton Dickinson, Franklin Lakes, N.J.). […] The proportion of cells labeled after 6 h of treatment with 250 nM gemcitabine was 6.6-6.9% in control cell lines, 2.6% in H23-R1, and 15.2% in H23siR1. Cisplatin exposure for 6 h at 200 nM yielded 14.5-15.1% apoptotic cells in H23-Ct and H23siCt, 5.5% apoptotic cells in H23-R1, and 19.0% apoptotic cells in H23siR1.
(§5) Induction of apoptosis as a result of drug exposure was determined with 3×10^5 cells/well in six-well plates after 2, 4 and 6 hours of treatment. Cells were then labeled with annexin V, and labeling was determined by flow cytometry (FACScalibur, Becton Dickinson). After 4 h and 6 h of gemcitabine treatment 2.55% and 5.05% of the H23siCt cells were apoptotic while 5.09% and 15.7% of H23siR1 cells were apoptotic (FIG. 4). Likewise, the proportion of apoptotic cells after exposure to […] was higher in H23siR1 than in control cells. […] The increased apoptosis caused by both drugs in cell lines with reduced RRM1 expression was significant (p<0.05) as compared to control cells.

[9] = system: H23-R1 cells; test: as above; type: cell-based
Method: as §4, §5

[10] = system: control cell lines H23-Ct and H23siCt; test: as above; type: cell-based; conditions: 6 h
Method: as §4

[11] = system: H23siCt cells; test: as above; type: cell-based
Method: as §5

[12] = continuous exposure 72 or 96 h, read-out: IC50
[13] = H23siR1, RRM1 5-fold down, continuous exposure 72 or 96 hr, read-out: IC50 +/− SD
[14] = RRM1 no change, continuous exposure 72 or 96 hr, read-out: IC50 +/− SD
[15] = H23 (NCI-H23) parent cell line, continuous exposure 72 or 96 hr, read-out: IC50 +/− SD
[16] = H23-R1, RRM1 3-fold up, continuous exposure 72 or 96 hr, read-out: IC50 +/− SD
[17] = Homo sapiens, H23 (NCI-H23) parent cell line, continuous exposure 72 or 96 hr, read-out: IC50 +/− SD

CCC1=C[C@@H]2CN(C1)Cc1c([nH]c3ccccc13)[C@@](C(=O)OC)(c1cc3c(cc1OC)N(C)[C@H]1[C@@](O)(C(=O)OC)[C@H](OC(C)=O)[C@]4(CC)C=CCN5CC[C@]31[C@@H]54)C2 [Vinorelbine, vinorelbine]
IC50 ([1]; H23-R1, continuous exposure 72 or 96 h, read-out: IC50): 400 nM | IC50 ([2]; H23siR1, continuous exposure 72 or 96 h, read-out: IC50): 10 nM | IC50 [3, 12]: 20000 nM | IC50 [4, 12]: 20000 nM | Response at RRM1 high expression [5]: Sensitive | Response at RRM1 low expression [5]: Sensitive | Response at RRM1 medium expression [5]: Resistant | IC50 ([6]; Homo sapiens, NCI-H23, continuous exposure 72 or 96 h, read-out: IC50): 8000 nM

N.N.O=C([O-])C1(C(=O)[O-])CCC1.[Pt+2] [Carboplatin, carboplatin]
IC50 [2, 13]: 10000 nM | IC50 [3, 14]: 15000 nM | Response at ERCC1 high expression [7]: resistant | Response at ERCC1 low expression [7]: sensitive | IC50 [4, 14]: 13000 nM | Response at RRM1 high expression [5]: Minimal | Response at RRM1 low expression [5]: Minimal | IC50 [6, 15]: 12000 nM

N.N.[Cl][Pt][Cl] [Cisplatin, cisplatin]
Apoptotic cells ([8]; H23siR1, cisplatin 200 nM, 6 h): 19.0% | Apoptotic cells ([9]; H23-R1, cisplatin 200 nM, 6 h): 5.5% | IC50 [1, 16]: 1500 nM | IC50 [2, 13]: 950 nM | IC50 [3, 14]: 1250 nM | Response at ERCC1 high expression [7]: resistant | Response at ERCC1 low expression [7]: sensitive | IC50 [4, 14]: 1000 nM | Apoptotic cells ([10]; H23-Ct and H23siCt, cisplatin 200 nM): 14.5-15.1% | Response at RRM1 high expression [5]: Minimal | Response at RRM1 low expression [5]: Minimal | IC50 [6, 15]: 1200 nM

Nc1nc2[nH]cc(CCc3ccc(C(=O)N[C@@H](CCC(=O)O)C(=O)O)cc3)c2c(=O)[nH]1 [Pemetrexed, pemetrexed]
Response at RRM1 high expression [5]: resistant | Response at RRM1 low expression [5]: Sensitive

CC(=O)O[C@@]12CO[C@@H]1C[C@H](O)[C@@]1(C)C(=O)[C@H](O)C3=C(C)[C@@H](OC(=O)[C@H](O)[C@@H](NC(=O)OC(C)(C)C)c4ccccc4)C[C@@](O)([C@@H](OC(=O)c4ccccc4)[C@H]21)C3(C)C [Docetaxel, docetaxel]
Proportion of apoptotic cells compared with control cells ([8]; H23siR1 versus control cells): higher | Apoptosis compared with control cells ([9]; H23-R1 versus control cells): more apoptosis | IC50 [1, 16]: 9 nM | IC50 [2, 13]: 6 nM | IC50 [3, 14]: 700 nM | IC50 [4, 14]: 2500 nM | Response at RRM1 high expression [5]: Sensitive | Response at RRM1 low expression [5]: Sensitive | Response at RRM1 medium expression [5]: Resistant | IC50 [6, 17]: 1000 nM

Nc1ccn([C@@H]2O[C@H](CO)[C@@H](O)C2(F)F)c(=O)n1 [Gemcitabine, gemcitabine]
Proportion of cells labeled with annexin V ([8]; H23siR1, 250 nM gemcitabine, 6 h): 15.2% | Apoptotic cells ([8]; H23siR1, 4 h of treatment (Example 4, FIG. 4)): 5.09% | Apoptotic cells ([8]; H23siR1, 6 h of treatment (Example 4, FIG. 4)): 15.7% | Proportion of cells labeled with annexin V ([9]; H23-R1, 250 nM gemcitabine, 6 h): 2.6% | IC50 [1, 16]: 6000 nM | IC50 of H23-R1 higher than IC50 of H23-Ct (more resistant than control cell line) ([1]; H23-R1 versus H23-Ct): 8 fold | IC50 [2, 13]: 100 nM | IC50 of H23siR1 lower than IC50 of H23siCt (more sensitive than control cell line) ([2]; H23siR1 versus H23siCt): 10 fold | IC50 [3, 14]: 750 nM | Apoptotic cells ([11]; 4 h of treatment (Example 4, FIG. 4)): 2.55% | Apoptotic cells ([11]; 6 h of treatment (Example 4, FIG. 4)): 5.05% | IC50 [4, 14]: 1020 nM | Proportion of cells labeled with annexin V ([10]; control cell lines, 250 nM gemcitabine): 6.6-6.9% | Response at RRM1 high expression [5]: resistant | Response at RRM1 low expression [5]: Sensitive | IC50 [6, 17]: 500 nM
